Source: the NIST ThermoML archive (doi:10.1016/j.jct.2017.07.018)
± gives the expanded uncertainty stated by the source.

Settings: for vapor or sublimation pressure: Liquid, Gas chromatography

SMILES	vapor or sublimation pressure (298.15 K) [kPa]	vapor or sublimation pressure (310 K) [kPa]	vapor or sublimation pressure (320 K) [kPa]	vapor or sublimation pressure (330 K) [kPa]	vapor or sublimation pressure (340 K) [kPa]	vapor or sublimation pressure (350 K) [kPa]	vapor or sublimation pressure (360 K) [kPa]	vapor or sublimation pressure (370 K) [kPa]	vapor or sublimation pressure (380 K) [kPa]	vapor or sublimation pressure (390 K) [kPa]	vapor or sublimation pressure (400 K) [kPa]	vapor or sublimation pressure (410 K) [kPa]	vapor or sublimation pressure (420 K) [kPa]	vapor or sublimation pressure (430 K) [kPa]	vapor or sublimation pressure (440 K) [kPa]	vapor or sublimation pressure (450 K) [kPa]	vapor or sublimation pressure (460 K) [kPa]	vapor or sublimation pressure (470 K) [kPa]	vapor or sublimation pressure (480 K) [kPa]	vapor or sublimation pressure (490 K) [kPa]	other results
OC12CC3CC(CC(C3)C1)C2 [1-adamantanol]	0.0019 ± 0.0002	0.0062 ± 0.0005	0.015 ± 0.002	0.035 ± 0.005	0.074 ± 0.011	0.15 ± 0.021	0.28 ± 0.038	0.51 ± 0.063	0.88 ± 0.095	1.5 ± 0.14	2.3 ± 0.19	3.6 ± 0.28	5.4 ± 0.42	7.9 ± 0.61	11 ± 0.85	16 ± 1.2	22 ± 1.7	29 ± 2.2	38 ± 3.1	49 ± 4.7	vapor or sublimation pressure (500 K): 62 ± 7.6 kPa; vapor or sublimation pressure (521.2 K): 101.33 ± 10 kPa
C[C@@H]1CC[C@H]2C(C)(C)[C@H]3C[C@@]12CC[C@@]3(C)O [(+)-cedrol]	7e-05 ± 2e-05	0.00029 ± 0.0001	0.00084 ± 0.00027	0.0022 ± 0.0007	0.0055 ± 0.0018	0.013 ± 0.004	0.027 ± 0.009	0.054 ± 0.017	0.1 ± 0.031	0.19 ± 0.05	0.33 ± 0.08	0.55 ± 0.12	0.89 ± 0.16	1.4 ± 0.21	2.1 ± 0.27	3.1 ± 0.33	4.5 ± 0.4	6.3 ± 0.5	8.7 ± 0.68	12 ± 0.93	vapor or sublimation pressure (500 K): 16 ± 1.2 kPa; vapor or sublimation pressure (583.5 K): 101.33 ± 15 kPa; Normal melting temperature (Crystal, visual observation): 86.00 ± 3 °C
C=CC(C)(O)CC/C=C(\C)CCC=C(C)C (centres undefined) [(E)-3,7,11-trimethyldodeca-1,6,10-trien-3-ol]	6e-05 ± 2e-05	0.00024 ± 8e-05	0.00074 ± 0.00025	0.0021 ± 0.0007	0.0053 ± 0.0016	0.013 ± 0.004	0.028 ± 0.009	0.058 ± 0.018	0.115 ± 0.033	0.22 ± 0.058	0.39 ± 0.092	0.67 ± 0.14	1.1 ± 0.2	1.8 ± 0.27	2.8 ± 0.34	4.3 ± 0.43	6.3 ± 0.54	9.1 ± 0.71	13 ± 1	18 ± 1.4	vapor or sublimation pressure (500 K): 24 ± 1.9 kPa; vapor or sublimation pressure (554.7 K): 101.33 ± 13 kPa
C=CC(C)(O)CC/C=C(/C)CCC=C(C)C (centres undefined) [(Z)-3,7,11-trimethyldodeca-1,6,10-trien-3-ol]	7.5e-05 ± 4e-05	0.00032 ± 0.0001	0.001 ± 0.0003	0.0026 ± 0.0008	0.0067 ± 0.0017	0.016 ± 0.005	0.034 ± 0.011	0.071 ± 0.021	0.14 ± 0.039	0.26 ± 0.067	0.46 ± 0.11	0.79 ± 0.16	1.3 ± 0.22	2.1 ± 0.3	3.3 ± 0.4	4.9 ± 0.49	7.2 ± 0.61	10 ± 0.78	15 ± 1.2	20 ± 1.6	vapor or sublimation pressure (500 K): 27 ± 2.1 kPa; vapor or sublimation pressure (550.3 K): 101.33 ± 13 kPa
